According to patent US20140243322A1, “BIVALENT BROMODOMAIN LIGANDS, AND METHODS OF USING SAME” (Coferon, Inc., priority 2011, published 2014):

Experiments:
Myc mRNA = assay: Inhibition of Myc expression (Myc mRNA) in MV4-11 cells; assay type: cell-based; conditions: Homo sapiens, 4 hours of treatment, read-out: EC50 range, Myc mRNA normalized to GAPDH mRNA
Text: Inhibition of Myc Expression.

MV4-11 cells = assay: Inhibition of MV4-11 cell proliferation (Cell-Titer Glo); assay type: cell-based; conditions: Homo sapiens, 72 hours of growth, read-out: GI50 range
Method: Inhibition of MV4-11 Cell Proliferation.
MV4-11 cells (5000 cells in 50 μl volumes) in growth medium containing 10% FBS and 1% Pen/Strep were plated and grown overnight in 96 well plates and treated the next day with 3-fold dilutions of test compounds or with DMSO vehicle. After 72 hours of growth, 30 ul of Cell-Titer Glo reagent (Promega) was added to the wells and the plates incubated for 30 minutes. Luminescence was measured on a Spectramax M5 plate reader and GI50 values were calculated for each test compound.

Row | Structure (SMILES) | EC50 (Myc mRNA) | GI50 (MV4-11 cells)
1 | CCNC(=O)C[C@@H]1N=C(c2ccc(Cl)cc2)c2cc(OCCOCCOCCOCCOCCNC(=O)C[C@@H]3N=C(c4ccc(Cl)cc4)c4cc(OC)ccc4-n4c(C)nnc43)ccc2-n2c(C)nnc21 [BRD-B-12, N-(14-(((4S)-6-(4-chlorophenyl)-4-(2-(ethylamino)-2-oxoethyl)-1-methyl-4H-benzo[f][1,2,4]triazolo[4,3-a][1,4]diazepin-8-yl)oxy)-3,6,9,12-tetraoxatetradecyl)-2-((4S)-6-(4-chlorophenyl)-8-methoxy-1-methyl-4H-benzo[f][1,2,4]triazolo[4,3-a][1,4]diazepin-4-yl)acetamide] | 30 to 100 nM | 0.1 to 30 nM
2 | CCNC(=O)C[C@@H]1N=C(c2ccc(Cl)cc2)c2cc(OCCNC(=O)C[C@@H]3N=C(c4ccc(Cl)cc4)c4cc(OC)ccc4-n4c(C)nnc43)ccc2-n2c(C)nnc21 [BRD-B-01, N-(2-(((S)-6-(4-chlorophenyl)-4-(2-(ethylamino)-2-oxoethyl)-1-methyl-4H-benzo[f][1,2,4]triazolo[4,3-a][1,4]diazepin-8-yl)oxy)ethyl)-2-((S)-6-(4-chlorophenyl)-8-methoxy-1-methyl-4H-benzo[f][1,2,4]triazolo[4,3-a][1,4]diazepin-4-yl)acetamide] |  | 100 to 30000 nM
3 | CCNC(=O)C[C@@H]1N=C(c2ccc(Cl)cc2)c2cc(OCCOCCOCCOCCNC(=O)C[C@@H]3N=C(c4ccc(Cl)cc4)c4cc(OC)ccc4-n4c(C)nnc43)ccc2-n2c(C)nnc21 [BRD-B-05, N-(2-(2-(2-(2-(((S)-6-(4-chlorophenyl)-4-(2-(ethylamino)-2-oxoethyl)-1-methyl-4H-benzo[f][1,2,4]triazolo[4,3-a][1,4]diazepin-8-yl)oxy)ethoxy)ethoxy)ethoxy)ethyl)-2-((S)-6-(4-chlorophenyl)-8-methoxy-1-methyl-4H-benzo[f][1,2,4]triazolo[4,3-a][1,4]diazepin-4-yl)acetamide] | 30 to 100 nM | 0.1 to 30 nM
4 | COc1ccc2c(c1)C(c1ccc(Cl)cc1)=N[C@@H](CC(=O)NCCOCCOCCOCCOCCNC(=O)C[C@@H]1N=C(c3ccc(Cl)cc3)c3cc(OC)ccc3-n3c(C)nnc31)c1nnc(C)n1-2 [BRD-B-16, (S)—N,N′-(3,6,9,12-tetraoxatetradecane-1,14-diyl)bis(2-((S)-6-(4-chlorophenyl)-8-methoxy-1-methyl-4H-benzo[f][1,2,4]triazolo[4,3-a][1,4]diazepin-4-yl)acetamide)] | 30 to 100 nM | 30 to 100 nM
5 | CCNC(=O)C[C@@H]1N=C(c2ccc(Cl)cc2)c2cc(OCCOCCOCCOCCOCCOCCNC(=O)C[C@@H]3N=C(c4ccc(Cl)cc4)c4cc(OC)ccc4-n4c(C)nnc43)ccc2-n2c(C)nnc21 [BRD-B-13, N-(17-(((4S)-6-(4-chlorophenyl)-4-(2-(ethylamino)-2-oxoethyl)-1-methyl-4H-benzo[f][1,2,4]triazolo[4,3-a][1,4]diazepin-8-yl)oxy)-3,6,9,12,15-pentaoxaheptadecyl)-2-((4S)-6-(4-chlorophenyl)-8-methoxy-1-methyl-4H-benzo[f][1,2,4]triazolo[4,3-a][1,4]diazepin-4-yl)acetamide] | 100 to 30000 nM | 0.1 to 30 nM
6 | COc1ccc2c(c1)C(c1ccc(Cl)cc1)=N[C@@H](CC(=O)NCCOCCOCCOCCOCCOCCNC(=O)C[C@@H]1N=C(c3ccc(Cl)cc3)c3cc(OC)ccc3-n3c(C)nnc31)c1nnc(C)n1-2 [BRD-B-17, (S)—N,N′-(3,6,9,12,15-pentaoxaheptadecane-1,17-diyl)bis(2-((S)-6-(4-chlorophenyl)-8-methoxy-1-methyl-4H-benzo[f][1,2,4]triazolo[4,3-a][1,4]diazepin-4-yl)acetamide)] | 100 to 30000 nM | 30 to 100 nM
7 | COc1ccc2c(c1)C(c1ccc(Cl)cc1)=N[C@@H](CC(=O)NCCOCCOCCOCCOCCOCCOCCOCCNC(=O)C[C@@H]1N=C(c3ccc(Cl)cc3)c3cc(OC)ccc3-n3c(C)nnc31)c1nnc(C)n1-2 [BRD-B-19, (S)—N,N′-(3,6,9,12,15,18,21-heptaoxatricosane-1,23-diyl)bis(2-((S)-6-(4-chlorophenyl)-8-methoxy-1-methyl-4H-benzo[f][1,2,4]triazolo[4,3-a][1,4]diazepin-4-yl)acetamide)] | 100 to 30000 nM | 0.1 to 30 nM
8 | COc1ccc2c(c1)C(c1ccc(Cl)cc1)=N[C@@H](CC(=O)NCCNC(=O)CNC(=O)CNC(=O)C[C@@H]1N=C(c3ccc(Cl)cc3)c3cc(OC)ccc3-n3c(C)nnc31)c1nnc(C)n1-2 [BRD-B-08, 2-((S)-6-(4-chlorophenyl)-8-methoxy-1-methyl-4H-benzo[f][1,2,4]triazolo[4,3-a][1,4]diazepin-4-yl)-N-(2-(2-(2-(2-((S)-6-(4-chlorophenyl)-8-methoxy-1-methyl-4H-benzo[f][1,2,4]triazolo[4,3-a][1,4]diazepin-4-yl)acetamido)acetamido)acetamido)ethyl)acetamide] | 100 to 30000 nM | 100 to 30000 nM
9 | COc1ccc2c(c1)C(c1ccc(Cl)cc1)=N[C@@H](CC(=O)NCc1cccc(C3CCN(C(=O)C[C@@H]4N=C(c5ccc(Cl)cc5)c5cc(OC)ccc5-n5c(C)nnc54)CC3)c1)c1nnc(C)n1-2 [BRD-B-10, 2-((S)-6-(4-chlorophenyl)-8-methoxy-1-methyl-4H-benzo[f][1,2,4]triazolo[4,3-a][1,4]diazepin-4-yl)-N-(3-(1-(2-((S)-6-(4-chlorophenyl)-8-methoxy-1-methyl-4H-benzo[f][1,2,4]triazolo[4,3-a][1,4]diazepin-4-yl)acetyl)piperidin-4-yl)benzyl)acetamide] |  | 100 to 30000 nM
10 | COc1ccc2c(c1)C(c1ccc(Cl)cc1)=N[C@@H](CC(=O)NCCNC(=O)CNC(=O)NCCNC(=O)C[C@@H]1N=C(c3ccc(Cl)cc3)c3cc(OC)ccc3-n3c(C)nnc31)c1nnc(C)n1-2 [BRD-B-09] | 100 to 30000 nM | 100 to 30000 nM
11 | COc1ccc2c(c1)C(c1ccc(Cl)cc1)=N[C@@H](CC(=O)NCC(=O)NCCNC(=O)CNC(=O)C[C@@H]1N=C(c3ccc(Cl)cc3)c3cc(OC)ccc3-n3c(C)nnc31)c1nnc(C)n1-2 [BRD-B-11, (S)—N,N′-(ethane-1,2-diyl)bis(2-(2-((S)-6-(4-chlorophenyl)-8-methoxy-1-methyl-4H-benzo[f][1,2,4]triazolo[4,3-a][1,4]diazepin-4-yl)acetamido)acetamide)] | 100 to 30000 nM | 100 to 30000 nM
12 | COc1ccc2c(c1)C(c1ccc(Cl)cc1)=N[C@@H](CC(=O)NCCOCCOCCOCCOCCOCCOCCOCCOCCNC(=O)C[C@@H]1N=C(c3ccc(Cl)cc3)c3cc(OC)ccc3-n3c(C)nnc31)c1nnc(C)n1-2 [BRD-B-22, (S)—N,N′-(3,6,9,12,15,18,21,24-octaoxahexacosane-1,26-diyl)bis(2-((4S)-6-(4-chlorophenyl)-8-methoxy-1-methyl-4H-benzo[1,2,4]triazolo[4,3-a][1,4]diazepin-4-yl)acetamide)] | 30 to 100 nM | 0.1 to 30 nM
13 | CCNC(=O)C[C@@H]1N=C(c2ccc(Cl)cc2)c2cc(OCCOCCOCCNC(=O)C[C@@H]3N=C(c4ccc(Cl)cc4)c4cc(OC)ccc4-n4c(C)nnc43)ccc2-n2c(C)nnc21 [BRD-B-04, N-(2-(2-(2-(((S)-6-(4-chlorophenyl)-4-(2-(ethylamino)-2-oxoethyl)-1-methyl-4H-benzo[f][1,2,4]triazolo[4,3-a][1,4]diazepin-8-yl)oxy)ethoxy)ethoxy)ethyl)-2-((S)-6-(4-chlorophenyl)-8-methoxy-1-methyl-4H-benzo[f][1,2,4]triazolo[4,3-a][1,4]diazepin-4-yl)acetamide] | 0.1 to 30 nM | 0.1 to 30 nM
14 | CCNC(=O)C[C@@H]1N=C(c2ccc(Cl)cc2)c2cc(OCCOCCOCCOCCOCCOCCOCCOCCOCCOCCNC(=O)C[C@@H]3N=C(c4ccc(Cl)cc4)c4cc(OC)ccc4-n4c(C)nnc43)ccc2-n2c(C)nnc21 [BRD-B-21, N-(29-(((4S)-6-(4-chlorophenyl)-4-(2-(ethylamino)-2-oxoethyl)-1-methyl-4H-benzo[f][1,2,4]triazolo[4,3-a][1,4]diazepin-8-yl)oxy)-3,6,9,12,15,18,21,24,27-nonaoxanonacosyl)-2-((4S)-6-(4-chlorophenyl)-8-methoxy-1-methyl-4H-benzo[f][1,2,4]triazolo[4,3-a][1,4]diazepin-4-yl)acetamide] | 100 to 30000 nM | 
15 | COc1ccc2c(c1)C(c1ccc(Cl)cc1)=N[C@@H](CC(=O)NCCNC(=O)NCCNC(=O)C[C@@H]1N=C(c3ccc(Cl)cc3)c3cc(OC)ccc3-n3c(C)nnc31)c1nnc(C)n1-2 [BRD-B-06, (S)—N,N′-((carbonylbis(azanediyl))bis(ethane-2,1-diyl))bis(2-((S)-6-(4-chlorophenyl)-8-methoxy-1-methyl-4H-benzo[f][1,2,4]triazolo[4,3-a][1,4]diazepin-4-yl)acetamide)] | 100 to 30000 nM | 100 to 30000 nM
16 | COc1ccc2c(c1)C(c1ccc(Cl)cc1)=N[C@@H](CC(=O)NCCOCCOCCOCCOCCOCCOCCOCCOCCOCCNC(=O)C[C@@H]1N=C(c3ccc(Cl)cc3)c3cc(OC)ccc3-n3c(C)nnc31)c1nnc(C)n1-2 [BRD-B-23, (S)—N,N′-(3,6,9,12,15,18,21,24,27-nonaoxanonacosane-1,29-diyl)bis(2-((4S)-6-(4-chlorophenyl)-8-methoxy-1-methyl-4H-benzo[f][1,2,4]triazolo[4,3-a][1,4]diazepin-4-yl)acetamide)] | 30 to 100 nM | 0.1 to 30 nM
17 | COc1ccc2c(c1)C(c1ccc(Cl)cc1)=N[C@@H](CC(=O)NCCOCCOCCOCCOCCOCCOCCNC(=O)C[C@@H]1N=C(c3ccc(Cl)cc3)c3cc(OC)ccc3-n3c(C)nnc31)c1nnc(C)n1-2 [BRD-B-18, (S)—N,N′-(3,6,9,12,15,18-hexaoxaicosane-1,20-diyl)bis(2-((S)-6-(4-chlorophenyl)-8-methoxy-1-methyl-4H-benzo[f][1,2,4]triazolo[4,3-a][1,4]diazepin-4-yl)acetamide)] | 30 to 100 nM | 0.1 to 30 nM
18 | Cc1ccc(-c2c(C)noc2C)cc1S(=O)(=O)NCCOCCOCCNS(=O)(=O)c1cc(-c2c(C)noc2C)ccc1C [BRD-B-76, N,N′-((ethane-1,2-diylbis(oxy))bis(ethane-2,1-diyl))bis(5-(3,5-dimethylisoxazol-4-yl)-2-methylbenzenesulfonamide)] | 100 to 30000 nM | 
